From BindingDB's records for doi:10.1016/j.bmcl.2018.11.028 (Kumamoto University, 2019)

Tests used:
[1] = Inhibition of 20s constitutive proteasome beta1 caspase-like activity in human erythrocytes using […] as substrate preincubated for 10 mins followed by substrate addition and measured after 6 hrs by fluorescence assay
[2] = Inhibition of 20s constitutive proteasome beta2 trypsin-like activity in human erythrocytes using Boc-Leu-Arg-Arg-MCA as substrate preincubated for 10 mins followed by substrate addition and measured after 6 hrs by fluorescence assay

Compound	IC50 [1] [nM]	IC50 [2] [µM]
C1=C\CCc2cc3c[n+](c2)CCCC/C=C\CC[C@@H]2CN(CCCC/1)CC[C@@H]32	4700	
C1=C2CN3CCCC/C=C\CC[C@@H]4CN(CCCC/C=C\CC[C@H]1C3)CC[C@@H]24	480	6.3
